Results as given in ChEMBL document CHEMBL1145622, “2-Aminomethyl piperidines as novel urotensin-II receptor antagonists” (Bioorg Med Chem Lett, 2008).

Assays:
[1] = molecular target: T1, Urotensin-2 receptor (Homo sapiens, UniProt Q9UKP6); assay: Displacement of [125I]human urotensin 2 from human recombinant urotensin 2 receptor expressed in HEK293 cells; type: cell-based
T1 sequence (Q9UKP6 whole entry): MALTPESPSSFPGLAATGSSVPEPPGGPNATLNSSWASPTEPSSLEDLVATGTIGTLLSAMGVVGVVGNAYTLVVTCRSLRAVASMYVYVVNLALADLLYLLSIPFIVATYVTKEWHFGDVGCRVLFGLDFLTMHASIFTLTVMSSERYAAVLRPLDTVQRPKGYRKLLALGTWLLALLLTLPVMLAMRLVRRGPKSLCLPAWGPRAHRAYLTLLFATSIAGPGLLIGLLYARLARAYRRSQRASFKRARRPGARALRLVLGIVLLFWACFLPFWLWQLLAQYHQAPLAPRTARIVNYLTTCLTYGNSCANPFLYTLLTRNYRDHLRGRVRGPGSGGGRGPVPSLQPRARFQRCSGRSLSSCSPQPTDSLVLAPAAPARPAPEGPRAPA

[2] = molecular target: T1, Urotensin-2 receptor; assay: Inhibition of human recombinant urotensin 2 receptor-mediated calcium mobilization expressed in HEK293 cells by FLIPR assay; type: functional, cell-based
[3] = Displacement of [125I]human urotensin 2 from cat urotensin 2 receptor; design: species or system Felis catus
[4] = molecular target: T2, Urotensin-2 receptor (Rattus norvegicus, UniProt P49684); assay: Displacement of [125I]human urotensin 2 from rat urotensin 2 receptor
T2 sequence (P49684 whole entry): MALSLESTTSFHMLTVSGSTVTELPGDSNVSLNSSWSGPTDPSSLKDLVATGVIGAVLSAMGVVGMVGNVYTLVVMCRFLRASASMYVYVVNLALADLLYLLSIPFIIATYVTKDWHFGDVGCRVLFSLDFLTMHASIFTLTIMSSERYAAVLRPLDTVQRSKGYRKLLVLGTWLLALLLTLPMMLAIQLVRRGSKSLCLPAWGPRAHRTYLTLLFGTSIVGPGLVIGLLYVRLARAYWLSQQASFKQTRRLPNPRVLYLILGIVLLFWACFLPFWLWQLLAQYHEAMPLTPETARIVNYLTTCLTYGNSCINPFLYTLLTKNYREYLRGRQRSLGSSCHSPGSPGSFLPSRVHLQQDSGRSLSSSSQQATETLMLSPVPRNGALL

[5] = system: Aorta; assay: Blockade of human urotensin 2-induced contraction in rat isolated aorta; type: functional
[6] = molecular target: T1, Urotensin-2 receptor; assay: Antagonist activity at human urotensin 2 receptor; type: functional; conditions: read-out: pA2 (converted)
[7] = Blockade of human urotensin 2-induced contraction in cat isolated femoral artery; type: functional, Felis catus
[8] = molecular target: Cytochrome P450 2D6 (Homo sapiens, UniProt P10635); assay: Inhibition of CYP2D6; type: ADME
[9] = Half life in rat at 1.2 mg/kg, iv and 2.2 mg/kg, po; type: ADME, organism-based; conditions: in vivo
[10] = Volume of distribution at steady state in rat at 1.2 mg/kg, iv and 2.2 mg/kg, po; type: ADME, organism-based; conditions: in vivo, read-out: Vdss
[11] = molecular target: Cytochrome P450 3A4 (Homo sapiens, UniProt P08684); assay: Inhibition of CYP3A4; type: ADME
[12] = Bioavailability in rat at 2.2 mg/kg, po; type: ADME, organism-based; conditions: in vivo
[13] = Clearance in rat at 1.2 mg/kg, iv and 2.2 mg/kg, po; type: ADME, organism-based; conditions: in vivo

Sequence of Cytochrome P450 2D6 (P10635 whole entry): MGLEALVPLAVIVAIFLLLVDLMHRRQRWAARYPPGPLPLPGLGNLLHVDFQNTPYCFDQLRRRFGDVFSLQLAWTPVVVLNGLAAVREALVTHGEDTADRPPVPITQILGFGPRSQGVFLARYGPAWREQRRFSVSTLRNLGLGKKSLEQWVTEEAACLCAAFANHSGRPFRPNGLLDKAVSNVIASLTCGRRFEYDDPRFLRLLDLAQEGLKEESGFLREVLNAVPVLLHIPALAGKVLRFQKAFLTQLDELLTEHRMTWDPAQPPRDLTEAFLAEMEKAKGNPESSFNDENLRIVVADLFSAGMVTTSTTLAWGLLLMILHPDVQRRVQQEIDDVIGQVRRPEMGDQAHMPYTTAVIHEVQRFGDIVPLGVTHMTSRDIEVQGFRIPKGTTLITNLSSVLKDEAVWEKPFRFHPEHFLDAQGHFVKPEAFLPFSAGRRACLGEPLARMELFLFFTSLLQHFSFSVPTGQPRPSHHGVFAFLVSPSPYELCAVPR
Sequence of Cytochrome P450 3A4 (P08684 whole entry): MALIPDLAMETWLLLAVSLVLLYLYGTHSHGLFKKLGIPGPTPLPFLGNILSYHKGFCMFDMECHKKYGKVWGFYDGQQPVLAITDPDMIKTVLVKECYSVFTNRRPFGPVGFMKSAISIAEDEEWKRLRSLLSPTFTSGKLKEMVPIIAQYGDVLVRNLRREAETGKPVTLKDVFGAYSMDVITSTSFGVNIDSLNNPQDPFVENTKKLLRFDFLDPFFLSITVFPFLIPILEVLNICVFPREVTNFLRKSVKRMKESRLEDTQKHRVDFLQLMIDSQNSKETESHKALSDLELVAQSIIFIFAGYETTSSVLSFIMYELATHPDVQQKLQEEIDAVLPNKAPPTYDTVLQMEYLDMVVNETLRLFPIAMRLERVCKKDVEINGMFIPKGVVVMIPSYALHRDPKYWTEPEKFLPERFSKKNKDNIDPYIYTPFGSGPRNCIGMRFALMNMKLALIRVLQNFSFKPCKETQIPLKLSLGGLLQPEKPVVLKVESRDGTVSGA

SMILES	Ki [1] [nM]	other results
CN(CC(=O)N1CCC[C@H](c2ccccc2)[C@@H]1CN1CCCC1)Cc1ccc(Cl)c(Cl)c1	3980	
COc1cccc(N(C)CC(=O)N2CCC[C@H](c3ccccc3)[C@@H]2CN2CCCC2)c1	794	
Cc1cccc(N(C)CC(=O)N2CCC[C@H](c3ccccc3)[C@@H]2CN2CCCC2)c1	398	
CN(CC(=O)N1CCC[C@@H](c2ccccc2)[C@H]1CN1CCCC1)c1ccc(Cl)c(Cl)c1	1580	
CN(CC(=O)N1CCCCC1CN1CCCC1)c1ccc(Cl)c(Cl)c1 (stereo unspecified)	398	IC50 [2]: 631 nM
O=C(Cc1csc2ccc(Cl)cc12)N1CCCCC1CN1CCCC1 (stereo unspecified)	501	
O=C(Cc1csc2ccc(Cl)cc12)N1CCCCC1CN1CCCCC1 (stereo unspecified)	7940	
O=C(Cc1c[nH]c2ccc(Br)cc12)N1CCC[C@H](c2ccccc2)[C@@H]1CN1CCCC1	631	
Cc1ccc2scc(CC(=O)N3CCC[C@H](c4ccccc4)[C@@H]3CN3CCCC3)c2c1	15.8	
CC(=O)N(CC(=O)N1CCC[C@H](c2ccccc2)[C@@H]1CN1CCCC1)c1ccc(Cl)c(Cl)c1	1580	
CCN(CC(=O)N1CCC[C@H](c2ccccc2)[C@@H]1CN1CCCC1)c1ccc(Cl)c(Cl)c1	31.6	
CN(CC(=O)N1CCC[C@H](c2ccccc2)[C@@H]1CN1CCCC1)c1cccc(Cl)c1	79.4	
CS(=O)(=O)N(CC(=O)N1CCC[C@H](c2ccccc2)[C@@H]1CN1CCCC1)c1ccc(Cl)c(Cl)c1	79.4	
O=C(CN(CC1CC1)c1ccc(Cl)c(Cl)c1)N1CCC[C@H](c2ccccc2)[C@@H]1CN1CCCC1	50.1	
Cc1ccc(N(C)CC(=O)N2CCC[C@H](c3ccccc3)[C@@H]2CN2CCCC2)cc1C	200	
CN(CC(=O)N1CCC[C@H](c2ccccc2)[C@@H]1CN1CCCC1)c1cccc(C(F)(F)F)c1	100	
CN(CC(=O)N1CCC[C@H](c2ccccc2)[C@@H]1CN1CCCC1)c1ccc(Cl)cc1	501	
O=C(Cc1ccc2ccccc2c1)N1CCC[C@H](c2ccccc2)[C@@H]1CN1CCCC1	7940	
O=C(CNc1ccc(Cl)c(Cl)c1)N1CCC[C@H](c2ccccc2)[C@@H]1CN1CCCC1	63.1	
O=C(Cc1csc2ccc(Cl)cc12)N1CCC[C@@H](c2ccccc2)[C@H]1CN1CCCC1	1000	
O=C(Cc1csc2ccc(Cl)cc12)N1CCOCC1CN1CCCC1 (stereo unspecified)	794	
O=C(Cc1csc2ccccc12)N1CCC[C@H](c2ccccc2)[C@@H]1CN1CCCC1	251	
O=C(Cc1csc2ccc(Cl)cc12)N1CCCCCC1CN1CCCC1 (stereo unspecified)	2000	

SMILES	Ki [1] [nM]	other results
CN1CCN(CC2CCCCN2C(=O)Cc2csc3ccc(Cl)cc23)CC1 (stereo unspecified)	> 7940	
O=C(c1cccc2ccccc12)N1CCC[C@H](c2ccccc2)[C@@H]1CN1CCCC1	> 7940	
CCN(CC)CC1CCCCN1C(=O)Cc1csc2ccc(Cl)cc12 (stereo unspecified)	> 7940	
O=C(Cc1ccsc1)N1CCC[C@H](c2ccccc2)[C@@H]1CN1CCCC1	> 7940	
O=C(Cc1cccc2ccccc12)N1CCC[C@H](c2ccccc2)[C@@H]1CN1CCCC1	79.4	
O=C(Cc1ccc(Cl)c(Cl)c1)N1CCC[C@H](c2ccccc2)[C@@H]1CN1CCCC1	2510	
O=C(Cc1csc2ccc(Cl)cc12)N1CCCC1CN1CCCC1 (stereo unspecified)	> 7940	
O=C(Cc1csc2ccc(Br)cc12)N1CCC[C@H](c2ccccc2)[C@@H]1CN1CCCC1	7.94	
O=C(Cc1csc2ccc(Cl)cc12)N1CCC[C@H](c2ccccc2)[C@@H]1CN1CCCC1	3.98	Log Ki [3]: -8; Ki [4]: 10 nM; pKb [5]: 7.7; Kb [6]: 10 nM; pKb [7]: 7.2
CN(CC(=O)N1CCC[C@H](c2ccccc2)[C@@H]1CN1CCCC1)c1ccccc1Cl	794	
Cc1ccc2scc(CCC(=O)N3CCC[C@H](c4ccccc4)[C@@H]3CN3CCCC3)c2c1	3160	
CN(CC(=O)N1CCC[C@H](c2ccccc2)[C@@H]1CN1CCCC1)c1ccc2ccccc2c1	158	
CN(CC(=O)N1CCC[C@H](c2ccccc2)[C@@H]1CN1CCCC1)c1ccccc1	3160	
O=C(Cc1csc2ccc(Cl)cc12)N1CCCCC1CN1CCOCC1 (stereo unspecified)	1260	
CCCO[C@H]1CCCN(C(=O)Cc2csc3ccc(Cl)cc23)[C@H]1CN1CCCC1 (relative stereo)	31.6	
O=C(Cc1csc2ccc(Cl)cc12)N1C[C@H](c2ccccc2)CC[C@H]1CN1CCCC1 (relative stereo)	31.6	
O=C(Cc1csc2ccc(Cl)cc12)N1CC[C@H](c2ccccc2)C[C@@H]1CN1CCCC1 (relative stereo)	200	
O=C(Cc1csc2ccc(Cl)cc12)N1CCC[C@H](C2CCCCC2)[C@@H]1CN1CCCC1 (relative stereo)	25.1	
C[C@H]1CCCN(C(=O)Cc2csc3ccc(Cl)cc23)[C@H]1CN1CCCC1 (relative stereo)	200	
O=C(Cc1csc2ccc(Cl)cc12)N1CCC[C@H](c2ccccc2)[C@@H]1CN1CCCC1 (relative stereo)	7.94	
CN(CC(=O)N1CCC[C@H](c2ccccc2)[C@@H]1CN1CCCC1)c1ccc(Cl)c(Cl)c1 (stereo in doubt; 10b)	15.8	IC50 [8]: 800 nM; half-life [9]: 3.8 h; Vd [10]: 23 L/kg; IC50 [11]: 1400 nM; bioavailability [12]: 0%; clearance [13]: 97 mL/min/kg
CN(CC(=O)N1CCC[C@H](c2ccccc2)[C@@H]1CN1CCCC1)c1ccc(Cl)c(Cl)c1 (stereo in doubt; 11a)	6.31	Log Ki [3]: -8.1; Ki [4]: 6.31 nM; pKb [5]: 7.9; pKb [7]: 7.2
